Experimental data from patent US4275066A, “Antireproductive tricyclic ortho-fused nitrogen containing compounds” (Gruppo Lepetit S.p.A., priority 1979, dated 1981).

Legend:
[1] = system: female Syrian golden hamsters; assay: post-coital-post-implantation antifertility activity, s.c., hamsters; format: in vivo, Syrian golden hamster; details: Mesocricetus auratus, sc, sesame oil containing 20% benzyl benzoate, daily for 5 days (days 4-8 of pregnancy), autopsy day 14, read-out: ED50 (100% activity, absence of live fetuses, in 50% of the animals)
Protocol: (§1) Representative experiments for assessing antifertility activity were carried out with female Syrian golden hamsters weighing 100 to 130 g. The animals were mated and the presence of sperm in the vagina was taken as evidence of mating. The day sperm was detected was considered day one of pregnancy, since in our laboratories and those of other investigators 90 to 100% of animals that mate as evidenced by vaginal sperm are pregnant.
(§2) Pregnancy was later confirmed at the time of autopsy by presence of fetuses or implantation sites in the uterus. Even if an animal aborts the fetus, implantation scars still remain as evidence that the animal has been pregnant. […] The animals were autopsied on day 14 of pregnancy and the uteri were examined for evidence of pregnancy (implantation sites, fetal resorptions or live fetuses), hemorrhage, and evidence of abnormalities of the uterus, placenta or fetuses. A compound was considered to be active if there was a reduction of live fetuses in at least 60% of the treated animals and the presence of implantation sites proves the animal to have been pregnant.
The compounds were then studied for dose-activity relationships and the corresponding ED50 values i.e., 100% activity (absence of live fetuses) in 50% of the animals, were also determined. The following Table reports the ED50 values of some representative compounds of the invention: […]

hamsters [2] = assay: antifertility activity by intravaginal route, hamsters; format: in vivo, hamster; details: Mesocricetus auratus
hamsters [3] = assay: antifertility activity by oral route, hamsters; format: in vivo, hamster; details: Mesocricetus auratus, p.o.
Protocol: as §1, §2
The compounds were then studied for dose-activity relationships and the corresponding ED50 values i.e., 100% activity (absence of live fetuses) in 50% of the animals, were also determined. The following Table reports the ED50 values of some representative compounds of the invention:
Favorable results were also obtained by administering the compounds of the invention by oral route. The experiments for assessing this property were carried out on hamsters following the same procedures as above, with the obvious exception that the compounds were administered orally instead of subcutaneously.

[4] = system: female Sprague-Dawley rats; assay: anti-reproductive activity, s.c., rats; format: in vivo, Sprague-Dawley rat; details: Rattus norvegicus, sc, five consecutive days from day 6 of pregnancy, autopsy day 16
Protocol: The same criteria and experimental conditions as above were also applied when the anti-reproductive activity of the compounds of the invention was investigated in other animal species such as, for instance, rats, dogs, monkeys and baboons.
In representative experiments, female Sprague-Dawley rats weighing from 200 to 300 g. were treated subcutaneously with a dosage of 20 mg/kg of the compound to be tested, dissolved in sesame oil containing 20% of benzyl benzoate, for five consecutive days starting from day 6 of pregnancy.

In the case of c1ccc(-c2ccc(-c3nc4n(n3)Cc3ccccc3-4)cc2)cc1 [Example 4, 2-[(1,1'-Biphenyl)-4-yl]-5H-1,2,4-triazolo[5,1-a]isoindole], the ED50 [1] was 0.7 mg/kg.
Compound c1ccc(-c2ccc(-c3nc4c5ccccc5ccn4n3)cc2)cc1 [Example 1, 2-[(1,1'-Biphenyl)-4-yl]-1,2,4-triazolo[5,1-a]isoquinoline] has an ED50 [1] of 0.015 mg/kg, an ED50 (hamsters [2]) of about 0.2 mg/kg and an ED50 (hamsters [3]) of 0.2 mg/kg. The ED50 [4] was 0.55 mg/kg.
Work on c1ccc(-c2ccc(-c3cn4ccc5ccccc5c4n3)cc2)cc1 [Example 6, 2-[(1,1'-Biphenyl)-4-yl]-imidazo[2,1-a]isoquinoline] yielded an ED50 [1] of 0.02 mg/kg and an ED50 (hamsters [3]) of 0.3 mg/kg.
Work on c1ccc(-c2ccc(-c3nc4n(n3)CCc3ccccc3-4)cc2)cc1 [Example 3, 2-[(1,1'-Biphenyl)-4-yl]-5,6-dihydro-1,2,4-triazolo[5,1-a]isoquinoline] yielded an ED50 [1] of 0.05 mg/kg and an ED50 (hamsters [3]) of 0.5 mg/kg.
